Assay results published in PubChem BioAssay (NCI).
Where “and” joins values, the source holds several entries; their conditions need not be identical. Identical values can stand only once.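 Five compound concentrations were applied to cells in 96-well plates for 48 hours; endpoints were derived by simple linear interpolation of the resulting dose-response curve. GI50: concentration for 50% inhibition of growth. Definition used: TGI = concentration required for complete inhibition of growth.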

Legend:
Experiment in all cases: inhibition of tumour cell growth, NCI panel, 48 h
HCT-15 colon = system: HCT-15 colon
HT29 colon = system: HT29 colon
786-0 renal = system: 786-0 renal
HCC-2998 colon = system: HCC-2998 colon
SF-539 CNS = system: SF-539 CNS
KM12 colon = system: KM12 colon
UACC-62 melanoma = system: UACC-62 melanoma
HOP-62 NSCLC = system: HOP-62 NSCLC
NCI-H23 lung = system: NCI-H23 lung
LOX IMVI melanoma = system: LOX IMVI melanoma

## O=S(=O)(Nc1ccc(Br)cc1)c1ccc(-c2cnc(C3CC3)o2)cc1
HCT-15 colon
  GI50: 644 nM
  TGI: 14200 nM
HT29 colon
  GI50: 715 nM
  TGI: 15900 nM
786-0 renal
  GI50: 5340 nM
  TGI: 20100 nM
HCC-2998 colon
  GI50: 2380 nM
  TGI: 15400 nM
SF-539 CNS
  GI50: 1860 nM
  TGI: 5910 nM
KM12 colon
  GI50: 1130 nM
  TGI: 17500 nM
UACC-62 melanoma
  GI50: 1390 nM
  TGI: 13700 nM
HOP-62 NSCLC
  GI50: 2370 nM
  TGI: 16600 nM
NCI-H23 lung
  GI50: 2990 nM
  TGI: 15100 nM
LOX IMVI melanoma
  GI50: 2410 nM
  TGI: 18000 nM

## CCN1C(=O)N(CC)C2C1NN=c1s/c(=C\c3ccc(Cl)cc3Cl)c(=O)n12 (centres undefined)
HCT-15 colon
  GI50: 35 nM
  TGI: > 100000 nM
HT29 colon
  GI50: 32.9 nM
  TGI: 12300 nM
786-0 renal
  GI50: 50.9 nM
  TGI: > 48800 nM
HCC-2998 colon
  GI50: 36.7 nM
  TGI: 10900 nM
SF-539 CNS
  GI50: 24.1 nM
  TGI: 69.8 nM
KM12 colon
  GI50: 27.4 nM
  TGI: > 32600 nM
UACC-62 melanoma
  GI50: 64 nM
  TGI: > 51500 nM
HOP-62 NSCLC
  GI50: 46.9 nM
  TGI: > 72800 nM
NCI-H23 lung
  GI50: 50.5 nM
  TGI: > 100000 nM
LOX IMVI melanoma
  GI50: 32.9 nM
  TGI: > 35100 nM

## O=C(N/N=C/c1ccccc1O)N/N=C/c1ccccc1O
HCT-15 colon
  TGI: > 100000 nM
HT29 colon
  TGI: > 100000 nM
786-0 renal
  TGI: > 100000 nM
HCC-2998 colon
  TGI: > 100000 nM
SF-539 CNS
  TGI: > 100000 nM
UACC-62 melanoma
  TGI: > 100000 nM
HOP-62 NSCLC
  TGI: > 100000 nM
NCI-H23 lung
  TGI: > 100000 nM
LOX IMVI melanoma
  TGI: > 100000 nM

## c1ccc(-c2nc(-c3ccccn3)nc(-c3ccccn3)n2)nc1
HCT-15 colon
  GI50: 5710 nM
  TGI: > 100000 nM
HT29 colon
  GI50: 6730 nM
  TGI: > 100000 nM
786-0 renal
  GI50: 61500 nM
  TGI: > 100000 nM
HCC-2998 colon
  GI50: 75500 nM
  TGI: > 100000 nM
SF-539 CNS
  GI50: 40300 nM
  TGI: > 100000 nM
KM12 colon
  GI50: 32400 nM
  TGI: > 100000 nM
UACC-62 melanoma
  GI50: 28000 nM
  TGI: > 100000 nM
HOP-62 NSCLC
  GI50: 30400 nM
  TGI: > 100000 nM
NCI-H23 lung
  GI50: 54900 nM
  TGI: > 100000 nM
LOX IMVI melanoma
  GI50: 33500 nM
  TGI: > 100000 nM

## Cc1ccc2cnc(N)c(C#Cc3cc(C(=O)Nc4ccc(CN5CCN(C)CC5)c(C(F)(F)F)c4)cnc3C)c2c1
HCT-15 colon
  GI50: 385 nM
  TGI: 1170 nM
HT29 colon
  GI50: 139 nM
  TGI: 776 nM
786-0 renal
  GI50: 809 nM
  TGI: 1680 nM
HCC-2998 colon
  GI50: 1590 nM
  TGI: 8460 nM
SF-539 CNS
  GI50: 664 nM
  TGI: 1320 nM
KM12 colon
  GI50: 5 nM
  TGI: 1020 nM
UACC-62 melanoma
  GI50: 234 nM
  TGI: 1080 nM
HOP-62 NSCLC
  GI50: 887 nM
  TGI: 2760 nM
NCI-H23 lung
  GI50: 727 nM
  TGI: 1820 nM
LOX IMVI melanoma
  GI50: 183 nM
  TGI: 808 nM

## O=C1OCC2=C1C(c1cccc(F)c1)c1cc3c(cc1N2CCO)OCO3 (centres undefined)
HCT-15 colon
  GI50: 1080 nM
  TGI: > 50000 nM
HT29 colon
  GI50: 1520 nM
  TGI: > 50000 nM
786-0 renal
  GI50: 1860 nM
  TGI: > 50000 nM
HCC-2998 colon
  GI50: 7060 nM
  TGI: > 50000 nM
SF-539 CNS
  GI50: 1130 nM
  TGI: 3610 nM
KM12 colon
  GI50: 1480 nM
  TGI: > 50000 nM
UACC-62 melanoma
  GI50: 2250 nM
  TGI: > 50000 nM
HOP-62 NSCLC
  GI50: 2190 nM
  TGI: > 50000 nM
NCI-H23 lung
  GI50: 3960 nM
  TGI: > 50000 nM
LOX IMVI melanoma
  GI50: 2350 nM
  TGI: > 50000 nM

## Cn1c(=O)c(N=Nc2c(=O)n(C)c(=O)n3c2[nH]c2ccccc23)c2[nH]c3ccccc3n2c1=O
HCT-15 colon
  TGI: > 100000 nM
HT29 colon
  TGI: > 100000 nM
786-0 renal
  TGI: > 100000 nM
HCC-2998 colon
  TGI: > 100000 nM
SF-539 CNS
  TGI: > 100000 nM
KM12 colon
  TGI: > 100000 nM
UACC-62 melanoma
  TGI: > 100000 nM
HOP-62 NSCLC
  TGI: > 100000 nM
NCI-H23 lung
  TGI: > 100000 nM
LOX IMVI melanoma
  TGI: > 100000 nM

## Nc1ncn([C@@H]2S[C@H](CO)[C@@H](O)[C@@H]2F)c(=O)n1
HCT-15 colon
  GI50: 2700 nM
  TGI: > 100000 nM
HT29 colon
  GI50: 2450 nM
  TGI: > 100000 nM
786-0 renal
  GI50: 337 nM
  TGI: > 100000 nM
HCC-2998 colon
  GI50: 1840 nM
  TGI: > 100000 nM
SF-539 CNS
  GI50: 9800 nM
  TGI: > 77900 nM
KM12 colon
  GI50: 21400 nM
  TGI: > 100000 nM
UACC-62 melanoma
  GI50: 5010 nM
  TGI: > 100000 nM
HOP-62 NSCLC
  GI50: 951 nM
  TGI: > 100000 nM
NCI-H23 lung
  GI50: 347 nM
  TGI: > 100000 nM
LOX IMVI melanoma
  GI50: 1160 nM
  TGI: > 100000 nM

## CC1CC(C)CC(C)C(O)/C(C#N)=C/C=C/CC(C2CCCC2C(=O)O)OC(=O)CC(O)C(C)C1 (centres undefined)
HCT-15 colon
  GI50: 22.9 nM
  TGI: 114 nM and 104 nM
HT29 colon
  GI50: 64.4 nM and 28.6 nM
  TGI: 574 nM and 321 nM
786-0 renal
  GI50: 21.3 nM
  TGI: 171 nM and 53.6 nM
HCC-2998 colon
  GI50: 29.7 nM
  TGI: 102 nM and 72.6 nM
SF-539 CNS
  GI50: 5.1 nM
  TGI: 21.3 nM and 14.6 nM
KM12 colon
  GI50: 47.3 nM and < 15.8 nM
  TGI: 216 nM and 227 nM
UACC-62 melanoma
  GI50: 11.2 nM
  TGI: 29.6 nM and 15 nM
HOP-62 NSCLC
  GI50: 18.3 nM
  TGI: 108 nM and 64.8 nM
NCI-H23 lung
  GI50: 18.3 nM and < 10.5 nM
  TGI: 91.9 nM and 22.1 nM
LOX IMVI melanoma
  GI50: 16.2 nM
  TGI: 47.9 nM and 21.3 nM

## c1cc[c]([Sn][c]2ccccc2)cc1
HCT-15 colon
  GI50: 20500 nM
  TGI: 41000 nM
HT29 colon
  GI50: 20200 nM
  TGI: 37000 nM
786-0 renal
  GI50: 17400 nM
  TGI: 31600 nM
HCC-2998 colon
  GI50: 13800 nM
  TGI: 18300 nM
SF-539 CNS
  GI50: 23300 nM
  TGI: 45500 nM
KM12 colon
  GI50: 13600 nM
  TGI: 19200 nM
UACC-62 melanoma
  GI50: 21000 nM
  TGI: 47000 nM
HOP-62 NSCLC
  GI50: 53100 nM
  TGI: > 100000 nM
NCI-H23 lung
  GI50: 15000 nM
  TGI: 23300 nM
LOX IMVI melanoma
  GI50: 20600 nM
  TGI: 42000 nM

## COc1cc(C)ccc1C(=O)c1ccc(C)cc1OC
HCT-15 colon
  GI50: 1100 nM
  TGI: > 100000 nM
HT29 colon
  GI50: 1850 nM
  TGI: 7990 nM
786-0 renal
  GI50: 6290 nM
  TGI: > 100000 nM
HCC-2998 colon
  GI50: 2870 nM
  TGI: 35900 nM
SF-539 CNS
  GI50: 2660 nM
  TGI: 20600 nM
KM12 colon
  GI50: 926 nM
  TGI: > 100000 nM
UACC-62 melanoma
  GI50: 4450 nM
  TGI: > 100000 nM
HOP-62 NSCLC
  GI50: 3110 nM
  TGI: > 100000 nM
NCI-H23 lung
  GI50: 6310 nM
  TGI: > 100000 nM
LOX IMVI melanoma
  GI50: 7880 nM
  TGI: > 100000 nM
